Reference: patent US20030134848A1, “Substituted 1-aza-2-imino-heterocycles and their use as nicotinic acetylcholin receptors activators” (priority 2000, published 2003)
Like-named read-outs stand apart in the source and are kept apart here.

Experiments:
[1] = target: T1, α4β2 subtype of nicotinic acetylcholine receptors (Rattus norvegicus, UniProt P09483+P12390); experiment: Binding assay at α4β2 subtype of nicotinic acetylcholine receptors ([3H]-cytisine, rat brain membrane); conditions: for remaining activity at 1 µM / remaining activity at 10 µM: read-out: control % of [3H]-cytisine binding
T1 construct: rat brain membrane obtained from whole homogenized brain; from tissue; host or cells: whole brain of Fischer-344 male rats, membrane fraction
Excerpt: (§1) The methods for evaluating the binding capabilities of the compounds at nicotinic acetylcholine receptors are different by subtypes of receptors. The binding capabilities of the compounds at α4β2 nicotinic acetylcholine receptors are examined using rat brain membrane obtained from whole homogenized brain, and determining the inhibiting rate of the compounds against [^3H]-cytisine binding to said brain membrane. Furthermore, the binding capabilities of the compounds at α1β1γδ nicotinic acetylcholine receptors are examined using homogenized rat muscle, and determining the inhibiting rate of the compounds against [^3H]-α-bungarotoxin binding to said muscle homogenate.
The affinity of the compounds of the present invention to α4β2 subtype of nicotinic acetylcholine receptors was performed by the following method, which was modified method described by Pabreza L. A., Dhawan S. & Kellar K. J., Mol. Pharm., 39, 9-12 (1990), and by Anderson D. J. & Arneric S. P., Eur. J. Pharm., 253, 261-267 (1994).
(1) Preparation of Rat Brain Membrane Containing α4β2 Subtype of Nicotinic Acetylcholine Receptors
Fischer-344 strain male rats (body weight: 200-240 g; 9 weeks old) obtained from Charles River Japan were used. Rats were housed in the breeding cage controlled of the room temperature at 23±1° C., and the humidity of 55±5% for 1 to 4 weeks. Rats (3 to 4 rats per a cage) were housed with lights on for 12 hours daily (from 7:00 to 19:00), and allowed free access to food and water.
Preparation of rat brain membrane containing α4β2 subtype of nicotinic acetylcholine receptors was performed as follow. That is, rat brains were isolated just after sacrificed by decapitation, washed with ice-cooled saline solution and then frozen at −80° C. with liquid nitrogen and stored till using. After thawing the frozen brain, the brain was homogenized in 10 volumes of ice-cooled buffer solution (50 mM of Tris-HCl, 120 mM of NaCl, 5 mM of KCl, 1 mM of MgCl2, 2 mM of CaCl2; pH 7.4; 4° C.) using homogenizer (HG30, Hitachi Kohki Ltd.) for 30 seconds, and the homogenate were centrifuged under 1,000×G for 10 minutes at 4° C. The resulting supernatant was separated and the pellet was homogenized again with half volume of aforementioned prior buffer solution and centrifuged under the same conditions. Combined supernatant was further centrifuged under 40,000×G for 20 minutes at 4° C. The pellet was suspended in buffer solution and used for binding assays at receptors.
(2) Experiments of α4β2 Subtype of Nicotinic Acetylcholine Receptors Binding
Suspensions of membrane pellets containing 400-600 μg of protein were added to test tubes containing test compounds and [^3H]-cytisine (2 nM) in a final volume of 200 μl and incubated for 75 minutes in ice-cooled bath. The samples were isolated by vacuum filtration onto Whatman GF/B filters, which were prerinsed with 0.5% polyethylenimine just prior to sample filtration, using Brandel multi manifold cell harvester. The filters were rapidly washed with buffer solution (3×1 ml). The filters were counted in 3 ml of clearsol I (Nacalai Tesque Inc.).
The analyses of the experimental results were conducted by using the Accufit Competition Program (Beckman Ltd.).

[2] = target: α1β1γδ subtype of nicotinic acetylcholine receptors (Rattus norvegicus, UniProt P18916+P25108+P25110); experiment: biochemical; assay type: binding; conditions: for Ki: read-out: Affinities for receptors Ki α1β1γδ, rat muscle extract, [3H]-α-Bgt 1 nM; for remaining activity at 100 µM / remaining activity at 1000 µM: read-out: control % of [3H]-α-Bgt binding
Excerpt: as §1
The affinity of the compounds of the present invention to α1β1γδ subtype of nicotinic acetylcholine receptors was measured by the following method, which was modified method described by Garcha H. S., Thomas P., Spivak C. E., Wonnacott S. & Stolerman I. P., Psychropharmacology, 110, 347-354 (1993).
(1) Preparation of Rat Skeletal Muscles Containing α1β1γδ Subtype of Nicotinic Acetylcholine Receptors
The substantially same animals described in the Biological Experiment 1 were used.
The isolation of α1β1γδ subtype of nicotinic acetylcholine receptors was performed as follow. That is, rat posterior skeletal muscles were isolated just after sacrificed by decapitation, washed with ice-cooled saline solution and then frozen at −80° C. with liquid nitrogen and stored till using. After thawing the frozen muscles, tissue was homogenized (40% w/v) with buffer solution [2.5 mM of sodium phosphate buffer (pH:7.2), 90 mM of NaCl, 2 mM of KCl, 1 mM of EDTA, 2 mM of benzamidine, 0.1 mM of benzethonium chloride, 0.1 mM of PMSF, 0.01% of sodium azide] in Waring blender (Waring blender 34BL97; WARING PRODUCTS DIVISION DYNAMICS CORPORATION OF AMERICA) for 60 seconds. The homogenate were centrifuged under 20,000×G for 60 minutes at 4° C. The supernatant was separated and the resulting pellet was added to the same buffer (1.5 ml/g wet weight), and homogenized under the same conditions. Triton X100 (2% w/v) was added and the mixture was stirred for 3 hours at 4° C. The centrifugation at 100,000×G for 60 minutes at 4° C. yielded the rat muscle extract as supernatant. This was stored at 4° C. for up to 4 weeks, and used for binding assays at receptors.
(2) Experiments of α1β1γδ Subtype of Nicotinic Acetylcholine Receptors Binding
Receptors binding experiments were performed as follow. That is, the extract of rat muscle containing 600-900 μg of protein was added to test tubes containing test compounds and incubated for 15 minutes at 37° C. Then, to this mixture was added 1 nM of [^3H]-α-bungarotoxin (α-Bgt) and further incubated for 2 hours. The samples were isolated by vacuum filtration onto Whatman GF/B filters, which were prerinsed with 0.5% polyethylenimine just prior to sample filtration, using Brandel multi manifold cell harvester. The filters were rapidly rinsed with washing solution (10 mM of KH2PO4, 150 mM of NaCl, pH 7.2, room temperature) (5×1 ml). The filters were counted in 3 ml of clearsol I (Nacalai Tesque Inc.). The determination of nonspecific binding was incubated in the presence of 1 μM α-Bgt. The solutions containing α-Bgt (labeled/non-labeled) were prepared by using buffer solution containing 0.25% of BSA. In the receptor binding experiments, said buffer solution was added for adjusting the final concentration of BSA to be 0.05%.
The analyses of the experimental results were conducted by the same way as described in the Biological Experiment 1.

[3] = 1 μM of test compound, rat brain membrane
[4] = 10 μM of test compound, rat brain membrane

T1 sequence (P09483 31-630): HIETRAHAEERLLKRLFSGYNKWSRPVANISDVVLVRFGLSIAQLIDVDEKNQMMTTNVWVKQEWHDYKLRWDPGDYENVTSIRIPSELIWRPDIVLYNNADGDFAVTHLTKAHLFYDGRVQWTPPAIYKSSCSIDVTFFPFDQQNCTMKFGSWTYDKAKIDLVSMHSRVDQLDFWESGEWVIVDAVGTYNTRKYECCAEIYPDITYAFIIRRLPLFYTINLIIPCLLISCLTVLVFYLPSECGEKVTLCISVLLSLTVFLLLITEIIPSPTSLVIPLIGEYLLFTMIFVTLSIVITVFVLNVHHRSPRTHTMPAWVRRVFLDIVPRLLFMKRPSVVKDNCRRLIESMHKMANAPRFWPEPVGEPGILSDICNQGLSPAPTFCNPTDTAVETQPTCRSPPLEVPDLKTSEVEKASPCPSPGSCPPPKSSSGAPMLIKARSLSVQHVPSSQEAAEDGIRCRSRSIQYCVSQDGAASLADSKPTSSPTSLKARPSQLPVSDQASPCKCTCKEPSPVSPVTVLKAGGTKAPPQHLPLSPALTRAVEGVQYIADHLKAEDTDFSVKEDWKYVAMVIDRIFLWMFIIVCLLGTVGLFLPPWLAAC
T1 sequence (P12390 25-500): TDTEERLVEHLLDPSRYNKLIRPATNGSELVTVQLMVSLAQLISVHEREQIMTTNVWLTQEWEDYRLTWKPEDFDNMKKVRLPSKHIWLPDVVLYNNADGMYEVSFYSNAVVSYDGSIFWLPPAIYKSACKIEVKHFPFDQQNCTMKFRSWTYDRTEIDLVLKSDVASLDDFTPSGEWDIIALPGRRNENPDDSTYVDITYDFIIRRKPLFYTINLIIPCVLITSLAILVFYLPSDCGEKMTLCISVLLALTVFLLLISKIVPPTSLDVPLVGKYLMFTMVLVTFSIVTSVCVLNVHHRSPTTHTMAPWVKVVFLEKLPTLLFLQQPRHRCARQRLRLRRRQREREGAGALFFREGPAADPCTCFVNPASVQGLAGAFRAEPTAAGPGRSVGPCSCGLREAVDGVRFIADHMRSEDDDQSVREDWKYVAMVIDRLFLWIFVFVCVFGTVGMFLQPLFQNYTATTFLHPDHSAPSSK
Chain of α1β1γδ subtype of nicotinic acetylcholine receptors (P25109 24-501): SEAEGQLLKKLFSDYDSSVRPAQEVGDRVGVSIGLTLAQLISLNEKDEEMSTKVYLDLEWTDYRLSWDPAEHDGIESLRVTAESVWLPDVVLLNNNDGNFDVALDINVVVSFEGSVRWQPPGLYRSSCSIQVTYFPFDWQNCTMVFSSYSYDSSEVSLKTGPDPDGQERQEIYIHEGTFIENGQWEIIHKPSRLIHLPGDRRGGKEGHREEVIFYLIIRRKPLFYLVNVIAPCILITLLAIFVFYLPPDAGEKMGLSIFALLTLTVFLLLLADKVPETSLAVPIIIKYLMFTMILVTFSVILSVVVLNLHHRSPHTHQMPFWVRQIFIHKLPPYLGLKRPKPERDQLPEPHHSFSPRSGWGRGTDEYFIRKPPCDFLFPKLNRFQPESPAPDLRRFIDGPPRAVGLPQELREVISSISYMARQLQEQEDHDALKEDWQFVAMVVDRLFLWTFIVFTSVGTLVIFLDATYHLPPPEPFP
Chain of α1β1γδ subtype of nicotinic acetylcholine receptors (P25110 22-517): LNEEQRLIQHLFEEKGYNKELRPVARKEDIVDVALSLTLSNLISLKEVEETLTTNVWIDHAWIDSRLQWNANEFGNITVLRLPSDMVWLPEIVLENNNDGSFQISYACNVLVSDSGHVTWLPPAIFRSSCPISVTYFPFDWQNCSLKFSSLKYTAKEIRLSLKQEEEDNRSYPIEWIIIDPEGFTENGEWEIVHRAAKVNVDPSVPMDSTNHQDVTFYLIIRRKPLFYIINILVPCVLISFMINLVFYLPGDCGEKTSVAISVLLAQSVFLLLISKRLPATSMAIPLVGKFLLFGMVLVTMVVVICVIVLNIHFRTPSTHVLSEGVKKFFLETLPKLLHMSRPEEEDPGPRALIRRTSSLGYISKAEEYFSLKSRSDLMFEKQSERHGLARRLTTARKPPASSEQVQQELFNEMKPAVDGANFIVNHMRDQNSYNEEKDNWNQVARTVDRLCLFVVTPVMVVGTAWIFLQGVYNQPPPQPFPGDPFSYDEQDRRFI
Chain of α1β1γδ subtype of nicotinic acetylcholine receptors (P25108 21-457): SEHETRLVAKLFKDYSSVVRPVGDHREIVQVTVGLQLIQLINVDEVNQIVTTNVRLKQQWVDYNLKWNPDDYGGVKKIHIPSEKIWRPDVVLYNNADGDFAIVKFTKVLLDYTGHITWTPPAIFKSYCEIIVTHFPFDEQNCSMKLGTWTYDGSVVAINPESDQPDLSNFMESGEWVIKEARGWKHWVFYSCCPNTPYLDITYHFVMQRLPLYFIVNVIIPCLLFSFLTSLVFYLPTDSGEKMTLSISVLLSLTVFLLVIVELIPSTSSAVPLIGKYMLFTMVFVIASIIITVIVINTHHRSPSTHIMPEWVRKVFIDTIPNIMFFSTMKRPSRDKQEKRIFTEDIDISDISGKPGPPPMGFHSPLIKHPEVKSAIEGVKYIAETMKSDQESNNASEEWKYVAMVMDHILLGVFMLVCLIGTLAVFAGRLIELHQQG
Chain of α1β1γδ subtype of nicotinic acetylcholine receptors (P18916 23-519): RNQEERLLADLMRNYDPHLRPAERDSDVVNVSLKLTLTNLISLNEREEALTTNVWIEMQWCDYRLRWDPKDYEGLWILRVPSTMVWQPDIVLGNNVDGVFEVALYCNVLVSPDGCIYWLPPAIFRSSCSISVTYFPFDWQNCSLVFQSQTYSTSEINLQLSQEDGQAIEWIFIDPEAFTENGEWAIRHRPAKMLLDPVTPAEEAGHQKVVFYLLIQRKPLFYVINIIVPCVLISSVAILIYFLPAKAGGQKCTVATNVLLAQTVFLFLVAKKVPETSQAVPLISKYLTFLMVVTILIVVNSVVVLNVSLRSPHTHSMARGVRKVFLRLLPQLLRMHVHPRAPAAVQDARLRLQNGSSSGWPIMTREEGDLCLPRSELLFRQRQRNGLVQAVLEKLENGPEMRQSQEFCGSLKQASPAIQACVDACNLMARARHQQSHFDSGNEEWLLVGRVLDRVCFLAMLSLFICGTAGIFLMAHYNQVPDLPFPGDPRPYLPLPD

Structure (SMILES) | remaining activity at 1 µM [1, 3] | remaining activity at 10 µM [1, 4] | Ki [2] | Ki [1] | remaining activity at 100 µM [2] | remaining activity at 1000 µM [2] | further results
N=C1SCCN1CC(=O)c1ccccc1 [Compound 1, 2-imino-3-phenacylthiazolidine] | 93% | 68% | – | – | – | – | –
Cc1sc(=N)n(CCc2ccc(Cl)nc2)c1C [Compound 10, 3-[2-(6-chloro-3-pyridyl)ethyl]-2-imino-4,5-dimethyl-2,3-dihydrothiazole] | – | – | 215 µM | 0.051 µM | – | – | –
CC(Cn1ccsc1=N)c1ccc(Cl)nc1 (centres unmarked) [Compound 18, 3-[2-(6-chloro-3-pyridyl)propyl]-2-imino-2,3-dihydrothiazole] | – | – | 173 µM | 0.084 µM | – | – | –
N=C1SCCN1CC(=O)c1ccc(Cl)nc1 [Compound 8, 1-(6-chloro-3-pyridyl)-2-(2-imino-3-thiazolidinyl)-1-ethanone] | – | – | 1830 µM | 0.062 µM | – | – | –
COc1ccc(Sc2ccccc2CCn2ccnc2N)cc1 [Compound 33, 2-amino-1-{2-[2-(4-methoxyphenyl)thiophenyl]ethyl}-imidazole] | 111% | 92% | – | – | 119% | 85% | –
Nc1nccn1CCc1ccc(O)cc1 [Compound 26, 2-amino-1-[2-(4-hydroxyphenyl)ethyl]imidazole] | 93% | 60% | – | – | 81% | 50% | –
Nc1nccn1CCc1ccccc1Sc1ccc(O)cc1 [Compound 32, 2-amino-1-{2-[2-(4-hydroxyphenyl)thiophenyl]ethyl}-imidazole] | 102% | 73% | – | – | 107% | 81% | –
N=c1ncccn1CCc1ccc(Cl)nc1 [Compound 3, 1-[2-(6-chloro-3-pyridyl)ethyl]-2-imino-1,2-dihydropyrimidine] | – | – | – | – | 72% | 39% | remaining activity at 1 µM [1]: 72%; remaining activity at 10 µM [1]: 17%
Cc1csc(=N)n1CCc1ccc(Cl)nc1 [Compound 4, 3-[2-(6-chloro-3-pyridyl)ethyl]-2-imino-4-methyl-2,3-dihydrothiazole] | – | – | 10 µM | 0.0056 µM | – | – | –
N=c1sccn1CCc1ccc(Cl)nc1 [Compound 22, 3-[2-(6-chloro-3-pyridyl)ethyl]-2-imino-2,3-dihydrothiazole] | – | – | 132 µM | 0.0074 µM | – | – | –
Cc1cn(CCc2ccc(Cl)nc2)c(=N)s1 [Compound 6, 3-[2-(6-chloro-3-pyridyl)ethyl]-2-imino-5-methyl-2,3-dihydro-thiazole] | – | – | – | – | 82% | 61% | remaining activity at 1 µM [1]: 77%; remaining activity at 10 µM [1]: 35%
CC(=O)Cn1ccsc1=N [Compound 2, 3-acetonyl-2-imino-2,3-dihydrothiazole] | 107% | 101% | – | – | – | – | –
Nc1nccn1CCc1ccc(Cl)nc1 [Compound 7, 2-amino-1-[2-(6-chloro-pyridyl)ethyl]imidazole] | – | – | 184 µM | 0.0049 µM | – | – | –
N=c1sccn1CCc1cnc(Cl)s1 [Compound 24, 3-[2-(2-chloro-5-thiazolyl)ethyl]-2-imino-2,3-dihydrothiazole] | – | – | 58 µM | 0.035 µM | – | – | –
N=C1SCCN1CC(O)c1ccc(Cl)nc1 (centres unmarked) [Compound 9, 1-(6-Chloro-3-pyridyl)-2-(2-imino-3-thiazolidinyl)-1-ethanol] | – | – | – | – | 72% | 35% | remaining activity at 1 µM [1]: 97%; remaining activity at 10 µM [1]: 43%
Nc1nccn1CCc1ccncc1 [Compound 20, 2-amino-1-[2-(4-pyridyl)ethyl]imidazole] | 97% | 95% | – | – | 109% | 90% | –
Nc1nccn1CCc1ccc(Cl)cc1 [Compound 17, 2-amino-1-[2-(4-chlorophenyl)ethyl]imidazole] | 97% | 78% | – | – | 83% | 67% | –
CN1CCCC1c1cccnc1 (single isomer, unassigned; (-)) [Nicotine, (−)-nicotine, reference compound] | – | – | 182 µM | – | – | – | –
Nc1nccn1CCc1cncnc1Cl [Compound 35, 2-amino-1-[2-(4-chloro-5-pyrimidyl)ethyl]imidazole] | – | – | – | – | 87% | 49% | remaining activity at 1 µM [1]: 61%; remaining activity at 10 µM [1]: 17%
Cc1nc(N)n(CCc2ccc(Cl)nc2)c1C [Compound 21, 2-amino-1-[2-(6-chloro-3-pyridyl)ethyl]-4,5-dimethylimidazole] | – | – | 175 µM | 0.097 µM | – | – | –
Cc1cncc(CCn2ccsc2=N)c1 [Compound 28, 2-imino-3-[2-(5-methyl-3-pyridyl)ethyl]-2,3-dihydrothiazole] | – | – | 94 µM | – | – | – | Ki ([1]; rat brain membrane, [3H]-cytisine 2 nM, read-out: Affinities for receptors Ki α4β2): 0.027 µM
N=c1ccccn1CCc1ccc(Cl)nc1 [Compound 16, 1-[2-(6-chloro-3-pyridyl)ethyl]-2-imino-1,2-dihydropyridine] | – | – | 227 µM | 0.061 µM | – | – | –
N=C1SCCN1CCc1ccc(Cl)nc1 [Compound 5, 3-[2-(6-chloro-3-pyridyl)ethyl]-2-iminothiazolidine] | – | – | 34 µM | 0.0048 µM | – | – | –
N=c1ccc(Cl)nn1CCc1ccc(Cl)nc1 [Compound 15, 6-chloro-2-[2-(6-chloro-3-pyridyl)ethyl]-3-imino-2,3-dihydropyridazine] | – | – | – | – | 93% | 61% | remaining activity at 1 µM [1]: 60%; remaining activity at 10 µM [1]: 12%
Nc1nccn1CCc1ccccn1 [Compound 19, 2-amino-1-[2-(2-pyridyl)ethyl]imidazole] | 103% | 106% | – | – | 106% | 86% | –
